ChEMBL document CHEMBL4376816, “Discovery of the Oral Leukotriene C4 Synthase Inhibitor (1S,2S)-2-({5-[(5-Chloro-2,4-difluorophenyl)(2-fluoro-2-methylpropyl)amino]-3-methoxypyrazin-2-yl}carbonyl)cyclopropanecarboxylic Acid (AZD9898) as a New Treatment for Asthma” (J Med Chem, 2019)
Activity calls are given as the source filed them. The calls are words filed in the database; no cut-off is given here.

Key:
Leukotriene C4 synthase [1] = biological target: T1, Leukotriene C4 synthase (Homo sapiens, UniProt Q16873)
T1 sequence (Q16873 whole entry): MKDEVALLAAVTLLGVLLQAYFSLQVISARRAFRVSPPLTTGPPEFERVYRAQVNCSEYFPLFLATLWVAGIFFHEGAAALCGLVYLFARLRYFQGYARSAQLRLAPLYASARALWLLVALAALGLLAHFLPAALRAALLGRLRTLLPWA

[2] = biological target: T2, Leukotriene C4 synthase (Homo sapiens) (UniProt Q16873)
T2 sequence (whole entry): T1 sequence (Q16873 whole entry)

[3] = Octanol/Sodium phosphate buffer partition coefficient, log D of compound at pH 7.4 at 1 mg incubated for overnight under shaking condition by LC-MS/MS analysis; type: physicochemical
[4] = Intrinsic clearance in human hepatocytes at 1 uM assessed as per million cells after 2 to 60 mins by LC-MS/MS analysis; type: ADME, cell-based, Hepatocyte; conditions: read-out: CLH
Leukotriene C4 synthase [5] = biological target: T1, Leukotriene C4 synthase; remark: listed apart in the source
[6] = biological target: T2, Leukotriene C4 synthase (Homo sapiens); test: Inhibition of LTC4S in healthy human whole blood assessed as inhibition of calcium ionophore A23187 stimulated cysteinyl leukotrienes production preincuabted for 30 mins followed by calcium ionophore stimulation and measured after 10 mins by LC-MS analysis; type: tissue-based
[7] = biological target: T2, Leukotriene C4 synthase (Homo sapiens); test: Inhibition of LTC4S in asthmatic human whole blood assessed as inhibition of calcium ionophore A23187 stimulated cysteinyl leukotrienes production preincuabted for 30 mins followed by calcium ionophore stimulation and measured after 10 mins by LC-MS analysis; type: tissue-based
[8] = Displacement of [3H]-GABA/[3]-muscimol from GABA gated chloride channel in Sprague-Dawley rat cortical synoptic membranes by liquid scintillation analysis

Compound	logD [3]	hepatocyte CLint at 1 µM [4] [µL/min/1e6 cells]	IC50 [8] [nM]	other results
O=C(Nc1ccc(Cc2ccc(NC(=O)c3ccccc3)c(C(=O)O)c2)cc1C(=O)O)c1ccccc1	–	–	–	IC50 (Leukotriene C4 synthase [1]): 1900 nM; inhibition [2]: inactive
COc1cc(N(CC(C)(C)F)c2cc(Cl)c(F)cc2F)cnc1C(=O)[C@H]1C[C@@H]1C(=O)O	0.8	< 1.7	–	–
COc1cc(N(CC(C)C)c2cc(C(F)(F)F)ccc2F)cnc1C(=O)[C@H]1C[C@@H]1C(=O)O	1.4	3.9	–	IC50 (Leukotriene C4 synthase [5]): 6.8 nM
COc1cc(N(CC2CC2)c2ccc(Cl)c(Cl)c2)cnc1C(=O)[C@H]1C[C@@H]1C(=O)O	1.6	4.3	–	–
COc1cc(N(CC2CC2)c2ccc(Cl)c3ccccc23)cnc1C(=O)CCCC(=O)O	2.8	6.8	–	–
COc1nc(N(CC(C)C)c2cc(Cl)c(F)cc2F)cnc1C(=O)[C@H]1C[C@@H]1C(=O)O	1.8	3	–	IC50 (Leukotriene C4 synthase [1]): 0.28 nM; IC50 (Leukotriene C4 synthase [5]): 4.1 nM
COc1cc(N(CC2CC2)c2ccccc2)cnc1C(=O)[C@H]1C[C@@H]1C(=O)O	0.65	3	–	–
COc1ccccc1C(=O)Nc1ccc(C(=O)c2ccc(N(C)c3ccc(Cl)cc3)cn2)cc1C(=O)O	–	–	–	IC50 (Leukotriene C4 synthase [1]): 35 nM
CC(c1cc2ccccc2s1)N(O)C(N)=O (stereo not given)	–	–	–	inhibition [6]: Active; inhibition [7]: Active
COc1cc(N(CC2CC2)c2cc(Cl)c(F)cc2F)cnc1C(=O)[C@H]1C[C@@H]1C(=O)O	1.1	< 1.5	5400	–
CCN(c1cccc(C(F)(F)F)c1)c1cnc(C(=O)[C@H]2C[C@@H]2C(=O)O)c(OC)c1	0.7	3.1	20000	–
COc1nc(C(=O)[C@@H]2C[C@H]2C(=O)O)ncc1N(CC1CC1)c1ccc(Cl)c2ccccc12 (relative stereo)	2.9	15	–	IC50 (Leukotriene C4 synthase [1]): 15.5 nM
COc1nc(N(CC(C)(C)F)c2cc(C(F)(F)F)ccc2F)cnc1C(=O)[C@H]1C[C@@H]1C(=O)O	1.2	1.5	–	IC50 (Leukotriene C4 synthase [5]): 7.8 nM
COc1cc(N(CC2CC2)c2cccc(C(F)(F)F)c2)cnc1C(=O)[C@H]1C[C@@H]1C(=O)O	1.4	2.3	11000	–
COc1cc(N(CC2CC2)c2ccc(Cl)cc2)cnc1C(=O)[C@@H]1C[C@H]1C(=O)O (relative stereo)	1.3	1.8	–	–
COc1cc(N(CC(C)C)c2ccc(F)c3ccccc23)cnc1C(=O)[C@H]1C[C@@H]1C(=O)O	2.2	56	–	–
COc1cc(N(CC2CC2)c2ccc(F)c(Cl)c2)cnc1C(=O)[C@H]1C[C@@H]1C(=O)O	1.2	3.1	3000	–

Compound	logD [3]	hepatocyte CLint at 1 µM [4] [µL/min/1e6 cells]	IC50 [8] [nM]	other results
CCCN(c1cccc(C(F)(F)F)c1)c1cnc(C(=O)[C@H]2C[C@@H]2C(=O)O)c(OC)c1	1.2	7.2	19000	–
COc1cc(N(CC(C)C)c2cccc(C(F)(F)F)c2)cnc1C(=O)[C@H]1C[C@@H]1C(=O)O	1.6	2.9	–	–
COc1cc(N(CC2CC2)c2cc(Cl)ccc2F)cnc1C(=O)[C@H]1C[C@@H]1C(=O)O	1.1	1.3	–	–
COc1cc(N(CC(C)C)c2cc(Cl)c(F)cc2F)cnc1C(=O)[C@H]1C[C@@H]1C(=O)O	1.3	4.9	–	–
COc1cc(N(CC(F)(F)F)c2cccc(C(F)(F)F)c2)cnc1C(=O)[C@H]1C[C@@H]1C(=O)O	1.1	–	–	–
COc1cc(N(CC(C)(C)F)c2cccc(C(F)(F)F)c2)cnc1C(=O)[C@H]1C[C@@H]1C(=O)O	0.9	< 1.5	54000	–
COc1nc(C(=O)[C@H]2C[C@@H]2C(=O)O)ncc1N(CC1CC1)c1cccc2ccccc12	–	–	–	IC50 (Leukotriene C4 synthase [1]): 2.4 nM
COc1cc(N(CC2CC2)c2cc(C(F)(F)F)ccc2F)cnc1C(=O)[C@H]1C[C@@H]1C(=O)O	1.2	< 1.1	8200	–
COc1cc(N(CC(C)(C)F)c2cc(C(F)(F)F)ccc2F)cnc1C(=O)[C@H]1C[C@@H]1C(=O)O	0.8	< 1	–	–
COc1cc(N(CC(C)(C)O)c2cccc(C(F)(F)F)c2)cnc1C(=O)[C@H]1C[C@@H]1C(=O)O	0	–	> 100000	–
COc1cc(N(CC2CC2)c2ccc(Cl)cc2)cnc1C(=O)c1cccc(C(=O)O)c1	1.7	28	–	–
COc1nc(N(CC(C)C)c2cc(C(F)(F)F)ccc2F)cnc1C(=O)[C@H]1C[C@@H]1C(=O)O	2	2.9	–	IC50 (Leukotriene C4 synthase [1]): 0.36 nM; IC50 (Leukotriene C4 synthase [5]): 3.5 nM
CCCN(c1cnc(C(=O)[C@H]2C[C@@H]2C(=O)O)c(OC)c1)c1ccc(F)c2ccccc12	1.8	7.6	3500	–
COc1cc(N(Cc2ccc(F)cc2)c2cccc(C(F)(F)F)c2)cnc1C(=O)[C@H]1C[C@@H]1C(=O)O	1.9	4.2	–	–
COc1cc(N(CC2CC2)c2ccc(F)c3ccccc23)cnc1C(=O)[C@H]1C[C@@H]1C(=O)O	1.9	5.4	640	–
CCN(c1cnc(C(=O)[C@H]2C[C@@H]2C(=O)O)c(OC)c1)c1ccc(F)c2ccccc12	1.4	3.8	2900	–
